According to patent US20160152831A1, “YELLOW COLORANT FOR HAIR DYEING, COMPOSITION FOR HAIR DYEING, AND HAIR DYEING METHOD” (HODOGAYA CHEMICAL CO., LTD., priority 2013, published 2016):

What was measured:
[1] = Light-fastness test of dyed hair (xenon fade meter); type: physicochemical, human; details: 330 W/m^2, 20 hours; for Color Difference (ΔE*): before vs after test; for Residual Ratio %: dyeing density after test to before test
Protocol: A composition for hair dyeing having a pH of 6 was prepared according to the compounding formation as shown in Table 6 by using Yellow 29 as the dye. By using the thus-prepared composition for hair dyeing, a test sample was prepared according to the same method as in Example 1. The resultant test sample was exposed to white light at an irradiation dose of 330 W/m^2 for 20 hours, by using a xenon long-life fade meter light-fastness tester Suga Test Instrument, FAL-25AX-HC-BEC Model), and the dyeing density (K/Sd) and the color values (L*, a*, b*) before and after the test, and the color difference (ΔE*) were determined. The light-fastness test was carried out under the condition where the temperature of the test sample could be from 60 to 66° C.

[2] = Shampooing-fastness test of dyed hair; type: physicochemical, human; details: for Color Difference (ΔE*): before vs after test; for Color Difference (ΔE*) / Residual Ratio %: 5 cycles; for Residual Ratio %: dyeing density after test to before test
Protocol: The test sample with Yellow 29 prepared in Example 1 was tested according to the shampooing-fastness test mentioned below, and the dyeing density (K/Sd) and color difference (ΔE*) before and after the test were determined. In the Table, the residual ratio (%) means the ratio of the dyeing density after the test to the dyeing density before the test.
The test sample was subjected to a cycle operation of (1) shampooing followed by (2) treatment as mentioned below, repeatedly five times in all, and then spontaneously dried at room temperature (about 20° C.).
Shampoo liquid: aqueous 5% sodium laurylsulfate solution
Bath ratio: 1/10 (mass of shampooing liquid relative to 1 g mass of dyed hair)
Processing temperature: 45° C.
Processing time: 20 minutes
Post-treatment: rinsing with water
Treatment liquid: aqueous 5% trimethylstearylammonium chloride solution
Bath ratio: 1/10 (mass of treatment liquid relative to 1 g mass of dyed hair)

| light-fastness [1] | Color Difference (ΔE*) [1] | Residual Ratio % [1] [%] | Color Difference (ΔE*) [2] | Residual Ratio % [2] [%] | shampooing-fastness ([2]; compared with Yellow 87) | Structure (SMILES) |
| --- | --- | --- | --- | --- | --- | --- |
| low | 10.2 | 98 |  |  |  | Cc1nn(-c2ccccc2)c(O)c1/N=N/c1cccc([N+](C)(C)C)c1.[Cl-] [Yellow 57, C.I. Basic Yellow 57, reference compound] |
|  |  |  | 21.8 | 33 |  | CN(/N=C\c1cc[n+](C)cc1)c1ccccc1 [Yellow 87, C.I. Basic Yellow 87, reference compound] |
| excellent | 2.8 | 89 | 6.6 | 82 | extremely excellent | Cc1ccc(N(C)/N=C/C2=[N+](C)c3ccccc3C2(C)C)cc1 [Yellow 29, C. I. Basic Yellow 29] |
